Experimental data: ChEMBL document CHEMBL5729469, “Compounds for treating ILK-mediated diseases” (2022)

Target: Epidermal growth factor receptor (Homo sapiens, UniProt P00533)
Assay: Biochemical Assay: Thus, while these compounds were extensively used in studying ILK-mediated cellular and disease processes, their reported inhibitory effects are probably due to unknown artifacts or indirect binding events. Next, we turned our attention to previously reported studies on kinase profiling and quantitative chemical proteomics. These studies suggested that a widely known lung …

Chain of Epidermal growth factor receptor (P00533 whole entry): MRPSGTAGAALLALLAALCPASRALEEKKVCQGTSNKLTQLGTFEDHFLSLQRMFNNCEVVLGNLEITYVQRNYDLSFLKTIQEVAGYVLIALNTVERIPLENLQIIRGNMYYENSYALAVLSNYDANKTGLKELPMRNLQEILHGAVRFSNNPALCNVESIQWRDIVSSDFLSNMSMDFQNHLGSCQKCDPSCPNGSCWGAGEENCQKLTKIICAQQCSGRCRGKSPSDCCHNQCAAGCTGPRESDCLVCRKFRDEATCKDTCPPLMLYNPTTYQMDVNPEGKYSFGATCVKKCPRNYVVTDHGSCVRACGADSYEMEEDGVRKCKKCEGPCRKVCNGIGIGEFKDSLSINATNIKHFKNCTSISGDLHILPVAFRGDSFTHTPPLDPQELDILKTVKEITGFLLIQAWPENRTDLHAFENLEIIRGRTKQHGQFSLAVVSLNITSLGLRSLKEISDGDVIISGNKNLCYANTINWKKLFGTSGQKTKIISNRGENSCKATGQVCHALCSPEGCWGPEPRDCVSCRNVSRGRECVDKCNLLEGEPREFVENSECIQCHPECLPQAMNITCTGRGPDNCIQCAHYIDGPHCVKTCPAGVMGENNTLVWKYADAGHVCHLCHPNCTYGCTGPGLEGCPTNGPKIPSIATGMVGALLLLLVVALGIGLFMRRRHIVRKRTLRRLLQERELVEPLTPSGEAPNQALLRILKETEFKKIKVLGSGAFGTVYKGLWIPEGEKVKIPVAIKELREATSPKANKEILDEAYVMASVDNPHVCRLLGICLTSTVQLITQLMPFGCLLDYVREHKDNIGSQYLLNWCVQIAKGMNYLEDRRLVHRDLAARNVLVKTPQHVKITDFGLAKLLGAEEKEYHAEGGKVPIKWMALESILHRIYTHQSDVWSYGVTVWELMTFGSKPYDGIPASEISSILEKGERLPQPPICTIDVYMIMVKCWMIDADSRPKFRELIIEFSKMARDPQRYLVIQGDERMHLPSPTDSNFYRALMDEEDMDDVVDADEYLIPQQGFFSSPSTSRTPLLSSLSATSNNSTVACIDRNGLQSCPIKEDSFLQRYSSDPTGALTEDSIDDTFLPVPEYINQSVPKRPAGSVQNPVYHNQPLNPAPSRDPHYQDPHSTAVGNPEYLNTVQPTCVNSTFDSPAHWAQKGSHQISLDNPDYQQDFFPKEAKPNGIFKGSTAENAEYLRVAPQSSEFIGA

Kd [µM]	Compound
17.7	C#Cc1cc(Nc2ncnc3cc(OCCOC)ccc23)cc(OCCOCC)c1
1.15	C#Cc1cc(C#C)cc(Nc2ncnc3cc(OC)c(OC)cc23)c1
0.745	C#Cc1cc(Nc2ncnc3cc(OCCOC)c(OCCOC)cc23)ccc1C
